Structures can show the parent of a compound that is named as a salt.
biological target: T1, hNET (Homo sapiens, UniProt P23975); test: Norepinephrine (NE) uptake assay in MDCK-Net6 cells stably transfected with human hNET; type: cell-based; settings: MDCK-Net6, read-out: % Inhibition @ 1 μM (hNET)
T1 construct: expressed in transfected cells
T1 sequence (P23975 whole entry): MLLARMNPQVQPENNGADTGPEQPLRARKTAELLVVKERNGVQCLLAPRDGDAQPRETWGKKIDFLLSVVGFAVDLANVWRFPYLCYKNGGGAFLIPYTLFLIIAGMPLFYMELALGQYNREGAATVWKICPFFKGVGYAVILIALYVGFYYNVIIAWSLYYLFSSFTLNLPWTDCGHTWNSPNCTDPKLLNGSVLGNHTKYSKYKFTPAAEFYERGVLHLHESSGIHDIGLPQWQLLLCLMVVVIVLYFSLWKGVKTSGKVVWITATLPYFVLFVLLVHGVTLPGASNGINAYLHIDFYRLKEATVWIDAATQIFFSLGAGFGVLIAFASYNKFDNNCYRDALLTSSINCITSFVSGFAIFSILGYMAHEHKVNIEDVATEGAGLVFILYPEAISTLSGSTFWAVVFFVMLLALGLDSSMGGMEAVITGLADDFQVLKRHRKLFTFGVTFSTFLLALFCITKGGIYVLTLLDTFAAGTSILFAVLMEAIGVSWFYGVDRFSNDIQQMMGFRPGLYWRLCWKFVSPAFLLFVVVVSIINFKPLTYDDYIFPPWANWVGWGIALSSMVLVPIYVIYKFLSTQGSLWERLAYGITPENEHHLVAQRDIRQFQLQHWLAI

SMILES	inhibition at 1 µM [%]
CNC[C@@H](O)[C@H](c1cccc(F)c1)n1ccc2ccc(Br)cc21 [Example 132, (1S,2R)-1-(6-bromo-1H-indol-1-yl)-1-(3-fluorophenyl)-3-(methylamino)propan-2-ol hydrochloride]	93
CNC[C@@H](O)[C@H](c1ccccc1)n1ccc2cc(OC)ccc21 (racemic) [Example 80, (1RS,2SR)-1-(5-methoxy-1H-indol-1-yl)-3-(methylamino)-1-phenyl propan-2-ol hydrochloride]	83.5
CCc1cn([C@@H](c2cccc(F)c2)[C@H](O)CNC)c2ccccc12 [Example 97, ((1S,2R)-1-(3-fluorophenyl)-3-(methylamino)-1-(3-ethyl-1H-indol-1-yl)propan-2-ol hydrochloride]	99.6
CNC[C@@H](O)[C@H](c1ccccc1)n1c(=O)n(C2CCCC2)c2ccccc21 [Example 202, 1-Cyclopentyl-3-[(1S,2R)-2-hydroxy-3-(methylamino)-1-phenylpropyl]-1,3-dihydro-2H-benzimidazol-2-one hydrochloride]	92.7
CNC[C@@H](O)[C@H](c1ccc(F)cc1)n1ccc2ccccc21 [Example 51, (1S,2R)-1-(4-fluorophenyl)-1-(1H-indol-1-yl)-3-(methylamino)propan-2-ol hydrochloride]	87
CNC[C@@H](O)[C@H](c1cccc(F)c1)n1ccc2cccc(Cl)c21 [Example 149, (1S,2R)-1-(7-chloro-1H-indol-1-yl)-1-(3-fluorophenyl)-3-(methylamino)propan-2-ol hydrochloride]	100
CNC[C@@H](O)[C@H](c1ccccc1F)n1ccc2ccccc21 [Example 50, (1S,2R)-1-(2-fluorophenyl)-1-(1H-indol-1-yl)-3-(methylamino)propan-2-ol hydrochloride]	91.8
CNC[C@H](O)[C@H](c1cccc(F)c1)n1ccc2ccccc21 [Example 139, (1S,2S)-1-(3-fluorophenyl)-1-(1H-indol-1-yl)-3-(methylamino)propan-2-ol hydrochloride]	94.9
CNC[C@@H](O)[C@H](c1cccc(F)c1)n1ccc2c(Br)cccc21 [Example 125, (1S,2R)-1-(4-bromo-1H-indol-1-yl)-1-(3-fluorophenyl)-3-(methylamino)propan-2-ol hydrochloride]	94.3
CNC[C@@H](O)[C@H](c1cccc(F)c1)n1ccc2ccc(Cl)cc21 [Example 151, (1S,2R)-1-(6-chloro-1H-indol-1-yl)-1-(3-fluorophenyl)-3-(methylamino)propan-2-ol hydrochloride]	94.3
CCn1c(=O)n([C@@H](c2cccc(F)c2)[C@H](O)CNC)c2c(F)cccc21 [Example 209, 1-Ethyl-4-fluoro-3-[(1S,2R)-2-hydroxy-3-(methylamino)-1-(3-fluorophenyl)-propyl]-1,3-dihydro-2H-benzimidazol-2-one hydrochloride]	99.3

same assay, conditions: hydrochloride, 1 µM

SMILES	% Inhibition @ 1 μM (hNET) [%]
CNC[C@H](O)[C@H](c1ccccc1)n1ccc2ccccc21 (stereo in doubt) [Example 30, (1S,2S)-1-(1H-indol-1-yl)-3-(methylamino)-1-phenylpropan-2-ol hydrochloride]	79.7

same assay, conditions: test compound 1 μM; [3H]NE uptake, MDCK-Net6 cells; read-out: % Inhibition @ 1 μM (hNET)

inhibition at 1 µM [%]	SMILES
99.8	CNC[C@@H](O)[C@H](c1ccccc1)n1cc(C)c2cccc(F)c21 [Example 179, (1S,2R)-1-(7-fluoro-3-methyl-1H-indol-1-yl)-3-(methylamino)-1-phenylpropan-2-ol hydrochloride]
29.9	CNC[C@@H](O)[C@H](c1cccc(F)c1)n1cc(-c2cccc(C(F)(F)F)c2)c2ccccc21 [Example 177, (1S,2R)-1-(3-fluorophenyl)-3-(methylamino)-1-{3-[3-(trifluoromethyl)phenyl]-1H-indol-1-yl}propan-2-ol hydrochloride]
24	CNC[C@@H](O)[C@H](c1ccccc1)n1cnc2ccccc21 (racemic) [Example 72, (1RS,2SR)-1-(1H-benzimidazol-1-yl)-3-(methylamino)-1-phenyl propan-2-ol hydrochloride]
73.1	CNC[C@@H](O)[C@H](c1ccccc1)n1ccc2ccc(C)cc21 [Example 90, (1S,2R)-3-(methylamino)-1-(6-methyl-1H-indol-1-yl)-1-phenylpropan-2-ol hydrochloride]
93.8	NCC[C@@H](O)[C@H](c1cccc(F)c1)n1ccc2ccccc21 [Example 159, (1S,2R)-4-amino-1-(3-fluorophenyl)-1-(1H-indol-1-yl)butan-2-ol hydrochloride]
96.9	CNC[C@@H](O)[C@H](c1ccccc1)n1ccc2cccc(F)c21 [Example 181, (1S,2R)-1-(7-fluoro-1H-indol-1-yl)-3-(methylamino)-1-phenylpropan-2-ol hydrochloride]
53.4	O[C@@H](CNCC1CCCCC1)[C@@H](c1ccccc1)n1ccc2ccccc21 (racemic) [Example 8, (1RS,2SR)-3-[(cyclohexylmethyl)amino]-1-(1H-indol-1-yl)-1-phenylpropan-2-ol hydrochloride]
4.6	CN1CCN(C[C@H](O)[C@@H](c2ccccc2)n2ccc3ccccc32)CC1 [Example 1, 1RS,2SR)-1-(1H-indol-1-yl)-3-(4-methylpiperazin-1-yl)-1-phenyl propan-2-ol dihydrochloride]
21.4	CNC[C@H](O)[C@@H](c1ccccc1OC(F)(F)F)n1ccc2ccccc21 [Example 37, (1R,2S)-1-(1H-indol-1-yl)-3-(methylamino)-1-[2-(trifluoromethoxy)phenyl]propan-2-ol hydrochloride]
82.3	CNC[C@@H](O)[C@H](c1ccccc1OC(F)(F)F)n1ccc2ccccc21 [Example 36, (1S,2R)-1-(1H-indol-1-yl)-3-(methylamino)-1-[2-(trifluoromethoxy)phenyl]propan-2-ol hydrochloride]
99.1	CNC[C@@H](O)[C@H](c1cccc(F)c1)n1cc(-c2ccccc2)c2ccccc21 [Example 98, ((1S,2R)-1-(3-fluorophenyl)-3-(methylamino)-1-(3-phenyl-1H-indol-1-yl)propan-2-ol hydrochloride]
32.4	CNC[C@H](O)[C@@H](c1ccc(OC(F)(F)F)cc1)n1ccc2ccccc21 (single isomer, unassigned) [Example 41, hydrochloride]
53.9	CNC[C@@H](O)[C@H](c1ccccc1)n1ccc2cccnc21 [Example 82, (1S,2R)-3-(methylamino)-1-phenyl-1-(1H-pyrrolo[2,3-b]pyridin-1-yl)propan-2-ol]
86.1	CNC[C@@H](O)[C@H](c1cccs1)n1ccc2ccccc21 [Example 103, (1R,2R)-1-(1H-indol-1-yl)-3-(methylamino)-1-(2-thienyl)propan-2-ol hydrochloride]
95.3	CNC[C@@H](O)[C@H](c1ccccc1)n1cc(C)c2cc(F)ccc21 [Example 117, (1S,2R)-1-(5-fluoro-3-methyl-1H-indol-1-yl)-3-(methylamino)-1-phenylpropan-2-ol hydrochloride]
24.5	CN(C)C[C@H](O)[C@@H](c1ccccc1)n1ccc2ccccc21 (racemic) [Example 4, (1RS,2SR)-3-(dimethylamino)-1-(1H-indol-1-yl)-1-phenylpropan-2-ol hydrochloride]
57.6	CNC[C@@H](O)[C@H](c1ccc(OC(F)(F)F)cc1)n1ccc2ccccc21 (single isomer, unassigned) [Example 40, hydrochloride]
85.8	O[C@H]([C@@H]1CCCN1)[C@H](c1cccc(F)c1)n1ccc2ccccc21 [Example 106, (1R,2S)-2-(3-fluorophenyl)-2-(1H-indol-1-yl)-1-[(2S)-pyrrolidin-2-yl]ethanol hydrochloride]
99.8	CNC[C@@H](O)[C@H](c1cccc(F)c1)n1cc(-c2cccc(F)c2F)c2ccccc21 [Example 211, (1S,2R)-1-[3-(2,3-difluorophenyl)-1H-indol-1-yl]-1-(3-fluorophenyl)-3-(methylamino)propan-2-ol hydrochloride]
94.2	CNC[C@@H](O)[C@H](c1ccccc1)N1C(=O)C(C)(C)c2ccccc21 [Example 100, 1-[(1S,2R)-2-hydroxy-3-(methylamino)-1-phenylpropyl]-3,3-dimethyl-1,3-dihydro-2H-indol-2-one hydrochloride]
17.5	CCCNC[C@@H](O)[C@H](c1cccc(F)c1)n1ccc2ccccc21 [Example 57, (1S,2R)-1-(3-fluorophenyl)-1-(1H-indol-1-yl)-3-(propylamino)propan-2-ol hydrochloride]
100	CNC[C@@H](O)[C@H](c1cccc(F)c1)n1cc(-c2ccccc2F)c2ccccc21 [Example 114, (1S,2R)-1-(3-fluorophenyl)-1-[3-(2-fluorophenyl)-1H-indol-1-yl]-3-(methylamino)propan-2-ol hydrochloride]
96.6	CNC[C@@H](O)[C@H](c1ccccc1)n1ccc2ccc(F)cc21 [Example 186, (1S,2R)-1-(6-fluoro-1H-indol-1-yl)-3-(methylamino)-1-phenylpropan-2-ol hydrochloride]
11.3	CCNC[C@H](O)[C@@H](c1ccccc1)n1ccc2cc(F)ccc21 (racemic) [Example 18, (1RS,2SR)-3-(ethylamino)-1-(5-fluoro-1H-indol-1-yl)-1-phenylpropan-2-ol hydrochloride]
68.6	Cc1cn([C@@H](c2ccccc2)[C@H](O)CN)c2ccc(Cl)cc12 [Example 120, (1S,2R)-3-amino-1-(5-chloro-3-methyl-1H-indol-1-yl)-1-phenylpropan-2-ol hydrochloride]

same assay, conditions: test compound 10 μM (stated in cell); [3H]NE uptake, MDCK-Net6 cells

inhibition at 10 µM [%]	SMILES
70.5	Cc1cn([C@H](c2ccccc2)[C@@H](O)CNC(C)C)c2ccccc12 (racemic) [Example 10, (1RS,2SR)-3-(isopropylamino)-1-(3-methyl-1H-indol-1-yl)-1-phenylpropan-2-ol hydrochloride]

— patent US20090093469A1, “Phenylaminopropanol Derivatives and Methods of Their Use” (WYETH, priority 2004, published 2009)
